Data set [1] addresses T1, Acetylcholinesterase (Electrophorus electricus, UniProt O42275). Kind of data set: Competitive inhibition of Electrophorus electricus AChE using varying levels of acetylthiocholine iodide as substrate preincubated for 15 mins followed by substrate addition and measured for 15 mins by Ellman's method based Lineweaver-Burk plot analysis.
A short description of data set [2]: Metal chelating activity assessed as mole fraction required to show 1:1 stoichiometry for compound-Cu2+ complex formation measured after 30 mins.
A further data set deals with Plasma. Kind of data set: Antiplatelet activity in rat platelet-rich plasma assessed as inhibition of ADP-induced platelet aggregation at 33 uM preincubated for 30 mins followed by ADP addition measured within 5 mins by aggregometry relative to control. Format: functional. Conditions: time 30-35 min.
Data set [3] can be described thus: Inhibition of Cu2+-induced amyloid beta (1 to 42 residues) aggregation at 25 uM after 24 hrs by thioflavin T-based fluorescence assay relative to control.
In data set [4] the test system is Mus musculus. As to the kind of experiment: Memory improvement effect in ig dosed Kunming mouse model of scopolamine-induced memory impairment assessed as increase in latency time administered once daily for 7 days followed by scopolamine challenge 30 mins prior to training on day 6 measured on day 7 by passive avoidance test. It counts as functional, organism-based. The following applies: dose 0.19-4.75 mg/kg, time 7.0 day.

Data set [5] concerns Mus musculus. Kind of data set: Reversal of scopolamine-induced memory impairment in ig dosed Kunming mouse assessed as increase in ACh level in cerebral cortex administered once daily for 7 days followed by scopolamine challenge 30 mins prior to training trail on day 6 measured on day 7. It counts as functional, organism-based. The following applies: dose 0.19-4.75 mg/kg, time 7.0 day.

A short description of data set [6]: Metal chelating activity assessed as compound-Cu2+ complex formation by measuring induction of red shift at 37.5 uM measured after 2 hrs by UV-visible spectrometric method.
For data set [7], the system named is PC-12. As to the kind of experiment: Neuroprotective activity against H2O2-induced cytotoxicity in rat PC12 cells assessed as cell viability at 50 uM preincubated for 2 hrs followed by H2O2 addition and measured after 24 hrs by MTT assay (reference value: 53.1%). Format: cell-based. Conditions: PC-12, 24 h, time 26 hrs, read-out: Activity.
Data set [8] addresses butyrylcholinesterase (BuChE) (Rattus norvegicus, UniProt Q9JKC1). Kind of data set: Inhibition of rat serum BuChE at 10 uM using butyrylthiocholine iodide as substrate incubated for 15 mins by Ellman's method relative to control. It counts as cell-free. Conditions: probe butyrylthiocholine iodide.
For data set [9], the target named is Acetylcholinesterase (Homo sapiens, UniProt P22303). Kind of data set: Inhibition of human AChE using acetylthiocholine iodide as substrate incubated for 15 mins by Ellman's method.
Sequence of Acetylcholinesterase (Homo sapiens, UniProt P22303) (P22303 whole entry): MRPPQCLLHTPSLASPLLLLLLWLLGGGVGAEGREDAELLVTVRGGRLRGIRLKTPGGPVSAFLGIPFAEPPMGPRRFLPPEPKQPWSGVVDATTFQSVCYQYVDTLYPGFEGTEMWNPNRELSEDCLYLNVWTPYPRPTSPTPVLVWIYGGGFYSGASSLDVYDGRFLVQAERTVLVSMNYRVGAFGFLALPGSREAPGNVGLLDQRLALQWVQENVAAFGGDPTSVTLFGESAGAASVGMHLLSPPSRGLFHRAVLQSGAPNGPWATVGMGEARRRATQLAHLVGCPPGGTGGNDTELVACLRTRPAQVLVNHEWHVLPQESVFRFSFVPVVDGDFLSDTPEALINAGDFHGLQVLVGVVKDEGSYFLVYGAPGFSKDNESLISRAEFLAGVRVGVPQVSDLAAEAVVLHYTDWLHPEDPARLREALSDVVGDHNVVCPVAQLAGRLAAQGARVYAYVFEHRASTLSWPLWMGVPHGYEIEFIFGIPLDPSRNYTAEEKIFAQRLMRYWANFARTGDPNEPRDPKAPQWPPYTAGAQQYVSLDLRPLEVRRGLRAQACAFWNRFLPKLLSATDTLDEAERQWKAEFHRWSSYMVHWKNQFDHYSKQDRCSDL
Data set [10] in a line: Metal chelating activity assessed as compound-Zn2+ complex formation by measuring induction of red shift at 37.5 uM measured after 2 hrs by UV-visible spectrometric method.
The subject of data set [11] is PC-12. Kind of data set: Neuroprotective activity against H2O2-induced cytotoxicity in rat PC12 cells assessed as increase in cell viability preincubated for 2 hrs followed by H2O2 addition and measured after 24 hrs by MTT assay. Format: functional, cell-based. Conditions: dose 1-50 µM, time 26.0 hrs.
Data set [12] concerns Mus musculus. Kind of data set: Memory improvement effect in ig dosed Kunming mouse model of scopolamine-induced memory impairment assessed as reduction in number of errors administered once daily for 7 days followed by scopolamine challenge 30 mins prior to training on day 6 measured on day 7 by passive avoidance test. It counts as functional, organism-based. The following applies: dose 0.19-4.75 mg/kg, time 7.0 day.

A short description of data set [13]: Permeability of the compound in pH 7.4 PBS/EtOH at 100 ug/ml after 18 hrs by PAMPA-BBB assay. The following applies: dose 100 µg/ml, read-out: permeability. It counts as ADME.
Data set [14] concerns the target Amyloid-beta precursor protein (Homo sapiens) (UniProt P05067). As to the kind of experiment: Disaggregation of self-induced amyloid beta (1 to 42) (unknown origin) preformed fibrils at 25 uM measured after 24 hrs by thioflavin-T fluorescence assay relative to control.
The nature of data set [15]: Metal chelating activity assessed as compound-Fe2+ complex formation by measuring induction of red shift at 37.5 uM measured after 2 hrs by UV-visible spectrometric method.
Data set [16] is described as follows: Metal chelating activity assessed as compound-Al3+ complex formation by measuring induction of blue shift at 37.5 uM measured after 2 hrs by UV-visible spectrometric method.
For data set [17], the target named is Amyloid-beta precursor protein (Homo sapiens) (UniProt P05067). As to the kind of experiment: Inhibition of amyloid beta (1 to 42) (unknown origin) self aggregation at 25 uM after 24 hrs by thioflavin-T fluorescence method relative to control.
Sequence of Amyloid-beta precursor protein (Homo sapiens) (P05067 whole entry): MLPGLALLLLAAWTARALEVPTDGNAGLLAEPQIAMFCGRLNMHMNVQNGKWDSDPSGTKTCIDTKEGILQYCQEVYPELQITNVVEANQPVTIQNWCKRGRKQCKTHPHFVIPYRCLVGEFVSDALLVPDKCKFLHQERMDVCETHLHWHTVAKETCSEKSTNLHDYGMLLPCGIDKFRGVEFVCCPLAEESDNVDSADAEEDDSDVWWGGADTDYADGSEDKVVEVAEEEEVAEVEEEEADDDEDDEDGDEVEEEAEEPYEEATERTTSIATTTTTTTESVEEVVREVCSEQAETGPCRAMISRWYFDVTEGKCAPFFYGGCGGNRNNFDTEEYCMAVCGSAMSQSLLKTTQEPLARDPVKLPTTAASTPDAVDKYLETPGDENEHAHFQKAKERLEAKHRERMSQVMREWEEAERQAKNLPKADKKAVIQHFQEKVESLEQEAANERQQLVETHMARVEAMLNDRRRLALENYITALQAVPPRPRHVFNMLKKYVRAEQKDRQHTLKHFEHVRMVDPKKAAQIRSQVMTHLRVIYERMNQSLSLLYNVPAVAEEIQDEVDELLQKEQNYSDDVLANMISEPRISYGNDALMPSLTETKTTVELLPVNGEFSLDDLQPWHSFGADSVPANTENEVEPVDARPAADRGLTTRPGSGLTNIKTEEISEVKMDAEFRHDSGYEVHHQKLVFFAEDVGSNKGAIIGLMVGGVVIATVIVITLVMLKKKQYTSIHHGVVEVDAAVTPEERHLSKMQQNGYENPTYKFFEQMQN
The target in the next data set is T2, MAO-A (Homo sapiens, UniProt P21397).
T2 sequence (P21397 whole entry): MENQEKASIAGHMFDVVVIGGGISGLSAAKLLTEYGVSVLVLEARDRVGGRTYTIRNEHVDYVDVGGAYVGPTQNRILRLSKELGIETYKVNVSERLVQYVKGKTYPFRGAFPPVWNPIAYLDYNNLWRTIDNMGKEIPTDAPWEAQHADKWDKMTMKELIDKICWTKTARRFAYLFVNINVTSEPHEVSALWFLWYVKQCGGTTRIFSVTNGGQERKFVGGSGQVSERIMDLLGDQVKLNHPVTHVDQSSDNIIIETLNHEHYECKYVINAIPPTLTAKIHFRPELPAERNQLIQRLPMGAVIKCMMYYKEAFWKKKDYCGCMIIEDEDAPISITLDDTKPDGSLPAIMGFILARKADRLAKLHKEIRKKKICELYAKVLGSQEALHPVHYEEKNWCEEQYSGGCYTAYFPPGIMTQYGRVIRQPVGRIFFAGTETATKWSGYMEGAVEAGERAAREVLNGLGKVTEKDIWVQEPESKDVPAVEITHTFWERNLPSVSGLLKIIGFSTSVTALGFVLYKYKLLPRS
Kind of data set: Inhibition of recombinant human MAOA at 10 uM using kynuramine as substrate preincubated for 30 mins followed by substrate addition and measured after 30 mins by fluorescence assay relative to control. The following applies: probe kynuramine, time 60 min.

Data set [18] concerns PC-12. Kind of data set: Cytotoxicity against rat PC-12 cells assessed as effect on cell viability up to 50 uM measured after 2 hrs by MTT assay. Conditions: pc-12, 2 h. It counts as cell-based.
The nature of data set [19]: Antioxidant activity assessed as trolox equivalent of AAPH radical scavenging activity measured every min for 90 mins by ORAC-FL assay. Format: functional.
The target of data set [20] is T1, Acetylcholinesterase. As to the kind of experiment: Inhibition of Electrophorus electricus AChE using acetylthiocholine iodide as substrate incubated for 15 mins by Ellman's method.
Data set [21] can be described thus: Cytotoxicity against rat PC-12 cells assessed as cell viability at 100 uM measured after 2 hrs by MTT assay relative to control. Format: cell-based. The following applies: read-out: Activity.
Data set [22] addresses T3, Amine oxidase [flavin-containing] B (Homo sapiens, UniProt P27338).
T3 sequence (P27338 whole entry): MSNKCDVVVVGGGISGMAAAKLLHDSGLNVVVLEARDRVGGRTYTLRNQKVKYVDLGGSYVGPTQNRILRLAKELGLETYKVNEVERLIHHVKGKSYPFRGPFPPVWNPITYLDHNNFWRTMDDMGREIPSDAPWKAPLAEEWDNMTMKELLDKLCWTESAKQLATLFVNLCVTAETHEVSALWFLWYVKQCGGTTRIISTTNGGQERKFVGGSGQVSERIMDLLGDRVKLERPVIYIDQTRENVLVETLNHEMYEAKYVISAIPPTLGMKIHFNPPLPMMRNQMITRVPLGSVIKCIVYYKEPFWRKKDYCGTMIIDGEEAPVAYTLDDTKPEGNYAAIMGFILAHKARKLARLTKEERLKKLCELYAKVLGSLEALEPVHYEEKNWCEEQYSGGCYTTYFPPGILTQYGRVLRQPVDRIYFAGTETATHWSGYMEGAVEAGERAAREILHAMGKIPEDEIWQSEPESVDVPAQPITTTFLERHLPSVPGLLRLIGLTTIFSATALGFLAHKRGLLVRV
As to the kind of experiment: Inhibition of recombinant human MAOB using kynuramine as substrate preincubated for 30 mins followed by substrate addition and measured after 30 mins by fluorescence assay.

Molecules are shown by their SMILES. Active and inactive are the calls of the source. No cut-off for these calls is given here.

T1 sequence (O42275 whole entry): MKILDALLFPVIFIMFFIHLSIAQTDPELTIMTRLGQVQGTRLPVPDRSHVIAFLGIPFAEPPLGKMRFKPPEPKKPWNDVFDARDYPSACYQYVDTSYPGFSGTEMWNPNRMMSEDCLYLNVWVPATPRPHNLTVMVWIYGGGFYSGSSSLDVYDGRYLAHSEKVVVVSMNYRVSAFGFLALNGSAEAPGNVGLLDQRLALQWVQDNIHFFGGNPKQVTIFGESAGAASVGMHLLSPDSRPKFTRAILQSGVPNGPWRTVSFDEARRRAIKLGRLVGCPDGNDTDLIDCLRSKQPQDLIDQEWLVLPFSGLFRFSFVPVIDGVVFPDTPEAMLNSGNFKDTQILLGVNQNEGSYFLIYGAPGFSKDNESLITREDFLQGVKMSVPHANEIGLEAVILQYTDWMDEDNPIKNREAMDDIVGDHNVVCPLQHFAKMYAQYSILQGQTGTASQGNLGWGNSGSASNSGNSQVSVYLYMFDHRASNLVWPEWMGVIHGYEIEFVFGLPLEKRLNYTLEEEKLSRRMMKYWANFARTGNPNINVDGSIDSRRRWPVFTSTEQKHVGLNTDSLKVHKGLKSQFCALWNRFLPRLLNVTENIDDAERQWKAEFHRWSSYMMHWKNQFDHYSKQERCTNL
Sequence of butyrylcholinesterase (BuChE) (Q9JKC1 whole entry): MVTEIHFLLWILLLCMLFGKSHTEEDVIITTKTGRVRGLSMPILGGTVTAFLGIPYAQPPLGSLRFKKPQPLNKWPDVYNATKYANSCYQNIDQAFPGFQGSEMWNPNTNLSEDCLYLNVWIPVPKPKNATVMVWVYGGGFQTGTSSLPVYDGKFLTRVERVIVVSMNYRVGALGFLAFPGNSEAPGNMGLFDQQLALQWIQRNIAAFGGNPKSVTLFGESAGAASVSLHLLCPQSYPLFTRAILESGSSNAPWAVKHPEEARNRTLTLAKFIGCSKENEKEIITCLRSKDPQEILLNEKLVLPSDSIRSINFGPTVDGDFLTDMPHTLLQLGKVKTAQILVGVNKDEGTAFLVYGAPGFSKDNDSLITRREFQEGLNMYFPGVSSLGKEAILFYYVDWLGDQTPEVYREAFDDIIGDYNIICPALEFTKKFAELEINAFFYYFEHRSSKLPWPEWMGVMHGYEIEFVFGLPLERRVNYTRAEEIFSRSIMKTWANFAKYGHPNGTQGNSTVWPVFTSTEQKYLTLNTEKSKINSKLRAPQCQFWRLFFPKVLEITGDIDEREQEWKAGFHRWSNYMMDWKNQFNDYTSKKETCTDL

With `COc1cc2c(cc1OC)/C(=C/c1ccc(O)c(N3CCCCC3)c1)OC2=O`, at Acetylcholinesterase [1], the Ki amounted to 0.082 nM. For the same molecule, the Activity (mole fraction) in data set [2] was found to be 0.88. In addition, the inhibition at 33 µM in the data set on Plasma was 32.5%. In addition, the values for the inhibition in [3] and in data set [17] were 19.9% and 34.2%, respectively. Further, the Activity entry is “Dose-dependent effect” with Mus musculus [4]; “Dose-dependent effect” with Mus musculus [5]; “Dose-dependent effect” in the data set with PC-12 [11]; “Dose-dependent effect” in the data set on Mus musculus [12]; 11.8% in [14]; “Non-Toxic” in the data set on PC-12 [18]. The Activity in [19] came to 2.05 equiv. Moreover, the outcome in data set [6], in [10], in data set [15] and in [16] was Active. Also, the viability at 50 µM in the data set with PC-12 [7] came out at 79%. In data set [8], this molecule returned an inhibition at […], 10 µM of 22.4%. In addition, the IC50 against Acetylcholinesterase [9] was 0.616 nM; against Acetylcholinesterase [20], 0.0918 nM; in data set [22], 5880 nM. Moreover, in [13], the Papp at 18 h, 100 ug/ml turned out to be 12.3 ×10⁻⁶ cm/s. Further, on MAO-A, the inhibition at 0.5 h, 10 µM is less than 5%. The viability at 2 h, 100 µM in data set [21] turned out to be 81.2%.

For the origin of these results see ChEMBL document CHEMBL4706703, “Novel 3-benzylidene/benzylphthalide Mannich base derivatives as potential multifunctional agents for the treatment of Alzheimer's disease” (Bioorg Med Chem, 2021).
